Results reported in patent US10669272B2, “Substituted naphthyridinone compounds useful as T cell activators” (BRISTOL-MYERS SQUIBB COMPANY, priority 2018, dated 2020).
Where two headings read alike, the source gives them in different places.

Tests used:
human DGKα = biological target: T1, human DGKα (Homo sapiens, UniProt P23743); experiment: DGKα LIPGLO assay (extruded liposome substrate), in vitro DGK inhibition; format: biochemical; conditions: read-out: DGKa LIPGLO IC50
T1 construct: TVMV protease cleavage site (C); Hexa-His (C); made in house; host or cells: Sf9 insect cells (baculovirus, Bac-to-Bac)

human DGKζ = biological target: T2, human DGKζ (Homo sapiens, UniProt Q13574); experiment: DGKζ LIPGLO assay (extruded liposome substrate), in vitro DGK inhibition; format: biochemical; conditions: read-out: DGKz LIPGLO IC50
T2 construct: TVMV protease cleavage site (C); Hexa-His (C); made in house; host or cells: Sf9 insect cells (baculovirus, Bac-to-Bac)

Human venous whole blood = experiment: Human whole blood IFN-γ assay; format: cell-based; conditions: human whole blood, read-out: INFg Whole Blood Normalized Agonist EC50;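 also: blood from healthy donors exposed to compound for 1 h before stimulation with anti-CD3 and anti-CD28 at 1 µg/mL each, IFN-γ quantified in supernatant by AlphaLISA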
Procedure: Human Whole Blood IFN-γ Assay
Human venous whole blood (22.5 μL per well), obtained from healthy donors, was pre-treated with compounds for one hour at 37° C. in a humidified 95% air/5% CO2 incubator. The blood was stimulated with 2.5 μL anti-human CD3 and anti-CD28 mAb at a final concentration of 1 μg/mL each for 24 hours at 37° C. IFN-γ in the supernatants was measured using AlphLISA kit (Cat # AL217).

[1] = anti-CD3 plus anti-CD28, 24 hours, 3 μM reference compound = 100% activation
[2] = normalized to 3 μM reference compound with anti-CD3 plus anti-CD28 as 100% activation
[3] = Homo sapiens, 24 h, normalized to 3 μM reference compound with anti-CD3 plus anti-CD28 as 100% activation
[4] = Homo sapiens, 24 h, anti-CD3 plus anti-CD28, 24 hours, 3 μM reference compound = 100% activation

T1 sequence (P23743 with tags, fused parts or gaps): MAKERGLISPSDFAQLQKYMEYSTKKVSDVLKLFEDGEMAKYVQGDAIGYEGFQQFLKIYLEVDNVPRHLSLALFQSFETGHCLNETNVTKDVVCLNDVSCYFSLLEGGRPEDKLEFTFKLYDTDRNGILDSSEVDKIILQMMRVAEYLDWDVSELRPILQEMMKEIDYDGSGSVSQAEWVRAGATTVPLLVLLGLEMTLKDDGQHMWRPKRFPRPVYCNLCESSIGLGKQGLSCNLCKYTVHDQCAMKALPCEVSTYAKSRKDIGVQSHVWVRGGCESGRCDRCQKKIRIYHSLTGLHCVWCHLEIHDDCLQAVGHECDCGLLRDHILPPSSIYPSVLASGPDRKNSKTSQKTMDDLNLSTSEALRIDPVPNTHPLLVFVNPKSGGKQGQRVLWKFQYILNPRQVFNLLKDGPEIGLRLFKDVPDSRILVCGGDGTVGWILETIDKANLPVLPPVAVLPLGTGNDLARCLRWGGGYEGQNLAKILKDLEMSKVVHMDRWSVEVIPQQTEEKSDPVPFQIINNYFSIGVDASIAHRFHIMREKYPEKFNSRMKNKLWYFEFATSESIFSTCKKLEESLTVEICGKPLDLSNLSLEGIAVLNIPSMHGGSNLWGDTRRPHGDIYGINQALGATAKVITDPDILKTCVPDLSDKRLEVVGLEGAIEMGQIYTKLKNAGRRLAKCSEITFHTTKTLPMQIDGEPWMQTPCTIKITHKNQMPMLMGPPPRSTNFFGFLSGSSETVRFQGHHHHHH
T2 sequence (Q13574 with tags, fused parts or gaps isoform Q13574-4): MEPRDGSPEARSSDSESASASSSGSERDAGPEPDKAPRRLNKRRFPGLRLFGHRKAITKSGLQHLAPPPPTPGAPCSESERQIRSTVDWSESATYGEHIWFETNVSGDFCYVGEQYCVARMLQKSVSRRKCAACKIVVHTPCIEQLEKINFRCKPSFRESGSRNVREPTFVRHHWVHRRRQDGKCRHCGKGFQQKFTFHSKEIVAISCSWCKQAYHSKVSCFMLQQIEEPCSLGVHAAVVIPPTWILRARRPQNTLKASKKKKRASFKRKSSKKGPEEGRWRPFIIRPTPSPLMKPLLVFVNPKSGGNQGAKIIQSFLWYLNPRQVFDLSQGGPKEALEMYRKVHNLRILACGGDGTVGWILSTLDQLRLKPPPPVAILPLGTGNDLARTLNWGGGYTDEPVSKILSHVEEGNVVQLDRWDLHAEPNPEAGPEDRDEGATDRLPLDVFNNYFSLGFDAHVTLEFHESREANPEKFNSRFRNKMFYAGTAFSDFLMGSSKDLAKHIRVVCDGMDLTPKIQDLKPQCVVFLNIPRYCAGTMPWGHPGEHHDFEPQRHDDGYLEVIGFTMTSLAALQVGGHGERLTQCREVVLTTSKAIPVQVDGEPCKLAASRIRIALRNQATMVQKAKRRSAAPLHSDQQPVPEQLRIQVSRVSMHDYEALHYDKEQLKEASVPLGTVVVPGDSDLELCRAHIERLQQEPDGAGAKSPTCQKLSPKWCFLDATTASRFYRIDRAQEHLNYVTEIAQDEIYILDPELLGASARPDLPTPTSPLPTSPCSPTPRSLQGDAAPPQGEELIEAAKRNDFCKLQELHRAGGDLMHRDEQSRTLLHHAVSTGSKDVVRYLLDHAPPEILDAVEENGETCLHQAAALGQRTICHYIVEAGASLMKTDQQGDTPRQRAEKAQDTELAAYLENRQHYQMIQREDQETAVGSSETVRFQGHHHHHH

Row | SMILES | IC50 (human DGKα; DGKα liposome (LIPGLO) assay) [µM] | IC50 (human DGKζ; DGKζ liposome (LIPGLO) assay) [µM] | EC50 (Human venous whole blood; [1]) [µM] | IC50 (human DGKα; liposome (LIPGLO) assay) [µM] | IC50 (human DGKζ; liposome (LIPGLO) assay) [µM] | EC50 (Human venous whole blood; [2]) [µM] | EC50 (Human venous whole blood; [3]) [µM] | EC50 (Human venous whole blood; [4]) [µM]
1 | C[C@@H]1CN(c2c(C#N)c(=O)n(C)c3ccc(C#N)nc23)CCN1C(c1ccccc1)c1ccc(F)cc1 (single isomer, unassigned) [Example 879] | 0.6 | 1.1 | 1.2 |  |  |  |  | 
2 | CC[C@H]1CN(C(C)c2ccc(C(F)(F)F)cc2)[C@H](C)CN1c1cc(=O)n(C)c2ccc(C#N)nc12 (single isomer, unassigned) [Example 1144] |  |  |  | 0.26 | 1.5 | 0.25 |  | 
3 | CC[C@@H]1CN(c2cc(=O)n(C)c3ccc(C#N)nc23)[C@@H](C)CN1Cc1ccc2c(c1)OC(F)(F)O2 [Example 1082] |  |  |  | 5.2 | 1.5 |  | 0.58 | 
4 | COCC(c1ccc(F)cc1)N1C[C@H](C)N(c2cc(=O)n(C)c3ccc(C#N)nc23)C[C@H]1C (single isomer, unassigned) [Example 559] |  |  |  | 0.065 | 2.7 |  | 0.27 | 
5 | CC[C@@H]1CN(c2cc(=O)n(C)c3ccc(C#N)nc23)[C@@H](C)CN1C(C)c1ccc(C2CC2)cc1F (single isomer, unassigned) [Example 1341] |  |  |  | 4.4 | 1.4 | 2 |  | 
6 | CC[C@@H]1CN(c2cc(=O)n(C)c3ccc(C#N)nc23)[C@@H](C)CN1C(C)c1ccc(OC(C)C)cc1 (single isomer, unassigned) [Example 1348] |  |  |  | 0.11 | 0.015 | 0.029 |  | 
7 | COc1ccc(C(c2ccc(F)cc2)N2C[C@H](C)N(c3cc(=O)n(C)c4ccc(C#N)nc34)C[C@H]2C)cc1 (stereo partly drawn) [Example 658] |  |  |  | 0.69 | 0.59 | 1.5 |  | 
8 | CC[C@H]1CN(C(C)c2ccc(OC(F)(F)F)cc2)[C@H](CC)CN1c1cc(=O)n(C)c2ccc(C#N)nc12 (single isomer, unassigned) [Example 1053] |  |  |  | 0.021 | 0.14 | 0.21 |  | 
9 | CC(c1ccc(OC(F)(F)F)cc1)N1C[C@H](C)N(c2c(C#N)c(=O)n(C)c3ccc(C#N)nc23)C[C@H]1C (single isomer, unassigned) [Example 801] | 0.068 | 2.2 |  |  |  |  |  | 13
10 | C[C@@H]1CN(c2c(C#N)c(=O)n(C)c3ccc(C#N)nc23)CCN1C(c1cccc(F)c1)c1ccc(F)cn1 (single isomer, unassigned) [Example 911] | 0.69 | 1.2 | 0.34 |  |  |  |  | 
11 | CC[C@H]1CN(C(c2ccc(F)cc2)c2cocn2)[C@H](CC)CN1c1cc(=O)n(C)c2ccc(C#N)nc12 (single isomer, unassigned) [Example 1068] |  |  |  | 0.043 | 0.092 | 0.25 |  | 
12 | C[C@@H]1CN(c2c(C#N)c(=O)n(C)c3ccc(C#N)nc23)[C@@H](C)CN1C(c1ccc(F)cc1)c1cccc(C(F)(F)F)n1 (single isomer, unassigned) [Example 845] | 2.5 | 6.2 | 1.5 |  |  |  |  | 
13 | C[C@@H]1CN(c2cc(=O)n(C)c3ccc(C#N)nc23)[C@@H](C)CN1C(c1ccc(Cl)cc1)c1nc(C2CC2)no1 (single isomer, unassigned) [Example 1285] |  |  |  | 0.026 | 0.017 | 0.092 |  | 
14 | CC(c1nc(C2CC2)cs1)N1C[C@H](C)N(c2cc(=O)n(C)c3ccc(C#N)nc23)C[C@H]1C (single isomer, unassigned) [Example 647] |  |  |  | 0.22 | 0.075 | 5.2 |  | 
15 | Cc1ccc(C(c2ccc(F)cc2)N2CCN(c3c(C#N)c(=O)n(C)c4ccc(C#N)nc34)C[C@H]2C)nc1 (single isomer, unassigned) [Example 904] | 0.17 | 1.4 |  |  |  |  |  | 0.52
16 | CC[C@@H]1CN(c2cc(=O)n(C)c3ccc(C#N)nc23)[C@@H](C)CN1C(c1ccc(F)cc1)c1ccc(F)cc1 [Example 1097] |  |  |  | 0.4 | 0.21 |  | 0.66 | 
17 | CC(c1ccccc1C(F)(F)F)N1CCN(c2c(C#N)c(=O)n(C)c3ccc(C#N)nc23)C[C@H]1C (single isomer, unassigned) [Example 966] | 61 | > 250 |  |  |  |  |  | 20

Row | SMILES | IC50 (human DGKα; DGKα liposome (LIPGLO) assay) [µM] | IC50 (human DGKζ; DGKζ liposome (LIPGLO) assay) [µM] | EC50 (Human venous whole blood; [1]) [µM] | IC50 (human DGKα; liposome (LIPGLO) assay) [µM] | IC50 (human DGKζ; liposome (LIPGLO) assay) [µM] | EC50 (Human venous whole blood; [2]) [µM] | EC50 (Human venous whole blood; [3]) [µM] | EC50 (Human venous whole blood; [4]) [µM]
18 | C[C@@H]1CN(c2c(C#N)c(=O)n(C)c3ccc(C#N)nc23)CCN1Cc1ccc(Cl)c(F)c1 [Example 1015] | 1.4 | 8.2 |  |  |  |  |  | 2.7
19 | CCC(c1ccc(OC(F)(F)F)cc1F)N1C[C@H](CC)N(c2cc(=O)n(C)c3ccc(C#N)nc23)C[C@H]1C (single isomer, unassigned) [Example 1378] |  |  |  | 1.4 | 2.8 | 9.5 |  | 
20 | C[C@@H]1CN(c2cc(=O)n(C)c3ccc(C#N)nc23)[C@@H](C)CN1Cc1ccc(C(C)(C)C)cc1 [Example 587] |  |  |  | 4.6 | 6.6 |  | 2.3 | 
21 | Cc1ccc(C(c2ccc(F)cn2)N2CCN(c3c(C#N)c(=O)n(C)c4ccc(C#N)nc34)C[C@H]2C)cc1 (stereo partly drawn) [Example 899] | 0.63 | 1.7 | 0.99 |  |  |  |  | 
22 | Cc1ccc(C(c2ccc(C)c(Cl)c2)N2C[C@H](C)N(c3cc(=O)n(C)c4ccc(C#N)nc34)C[C@H]2C)nc1 (stereo partly drawn) [Example 399, 8-((2S,5R)-4-((3-chloro-4-methylphenyl)(5-methylpyridin-2-yl)methyl)-2,5-dimethylpiperazin-1-yl)-5-methyl-6-oxo-5,6-dihydro-1,5-naphthyridine-2-carbonitrile] |  |  |  | 2.3 | 0.69 | 0.57 |  | 
23 | CC[C@@H]1CN(c2cc(=O)n(C)c3ccc(C#N)nc23)[C@@H](C)CN1C(C)c1ccc(OC(F)F)cc1 (stereo partly drawn) [Example 1343] |  |  |  | 0.0044 | 0.016 |  | 0.051 | 
24 | C[C@@H]1CN(c2cc(=O)n(C)c3ccc(C#N)nc23)[C@@H](C)CN1C(c1ccc(F)cn1)c1cccc2c1OC(C)(C)C2 (single isomer, unassigned) [Example 467] |  |  |  | 0.98 | 0.45 | 20 |  | 
25 | C[C@@H]1CN(c2cc(=O)n(C)c3ccc(C#N)nc23)[C@@H](C)CN1Cc1cnoc1 [Example 1428] |  |  |  | 34 | 53 |  | 20 | 
26 | CC[C@H]1CN(C(c2cccc(F)c2)c2ccc(C)cn2)[C@H](C)CN1c1cc(=O)n(C)c2ccc(C#N)nc12 (single isomer, unassigned) [Example 1125] |  |  |  | 0.36 | 1.5 | 0.17 |  | 
27 | C[C@@H]1CN(c2cc(=O)n(C)c3ccc(C#N)nc23)[C@@H](C)CN1C(c1ccc(F)cc1)c1c(F)cc(F)cc1F (single isomer, unassigned) [Example 692] |  |  |  | 0.81 | 2.5 | 0.68 |  | 
28 | C[C@@H]1CN(c2cc(=O)n(C)c3ccc(C#N)nc23)[C@@H](C)CN1C(c1ccccc1)c1ccc(Cl)cc1 (single isomer, unassigned) [Example 670] |  |  |  | 1.1 | 3.6 | 2.8 |  | 
29 | Cc1ccc(C(c2ccc(F)cc2Cl)N2C[C@H](C)N(c3c(C#N)c(=O)n(C)c4ccc(C#N)nc34)C[C@H]2C)nc1 (stereo partly drawn) [Example 832] | 19 | 2.7 | 1.8 |  |  |  |  | 
30 | CC(c1ccccc1OC(F)(F)F)N1C[C@H](C)N(c2cc(=O)n(C)c3ccc(C#N)nc23)C[C@H]1C (single isomer, unassigned) [Example 1213] |  |  |  | 56 | 3.6 | 8.4 |  | 
31 | COC[C@@H]1CN(c2cc(=O)n(C)c3ccc(C#N)nc23)[C@@H](C)CN1C(c1ccc(F)cc1)c1ccc(C(F)(F)F)cn1 (stereo partly drawn) [Example 1401] |  |  |  | 0.3 | 0.049 |  | 0.47 | 
32 | CC[C@@H]1CN(c2cc(=O)n(C)c3ccc(C#N)nc23)[C@@H](C)CN1C(c1ccc(F)cc1)c1ccon1 (single isomer, unassigned) [Example 1114] |  |  |  | 0.056 | 0.4 | 0.1 |  | 
33 | COC(=O)c1cccc(C(C)N2C[C@H](C)N(c3c(C#N)c(=O)n(C)c4ccc(C#N)nc34)C[C@H]2C)c1 (single isomer, unassigned) [Example 796] | 240 | 2.2 | 20 |  |  |  |  | 
